Experimental data reported in patent US20220280557A1, “Metabolic Reprogramming of Immune Cells for the Treatment or Prevention of Diseases and Disorders” (Arizona Board of Regents on behalf of Arizona State …, priority 2019, published 2022).

Legend:
[1] = Encapsulation efficiency and loading (BCA assay, absorbance spectrophotometer); type: physicochemical; details: for % EE: Table 1, encapsulated in paKG particles; for % loading: Table 1, μg of drug per mg of particles
Description: In one embodiment, the metabolite-based polymer or polymeric particle has at least one of high loading and high encapsulation efficiency of the at least one therapeutic agent. Encapsulation efficiency is the percentage of drug that is successfully entrapped into a polymeric particle. In one embodiment, encapsulation efficiency (% EE) is calculated by (total drug added—free non-entrapped drug) divided by the total drug added. Loading capacity is the amount of drug loaded per unit weight of a polymeric particle, indicating the percentage of mass of the polymeric particle that is due to the encapsulated drug. In one embodiment, loading capacity (% LC) can be calculated by the amount of total entrapped drug divided by the total polymeric particle weight. In one embodiment, the polymeric particle has about 50% to about 100% encapsulation efficiency of the at least one therapeutic agent. In one embodiment, the polymeric particle has about 60% to about 100% encapsulation efficiency of the at least one therapeutic agent.
(§1) Another set of polymeric particles were generated using water-oil-water emulsion encapsulating bovine collagen type II (bc2—antigen) in the presence of PFK15 in the particles. Percentage encapsulation efficiency (EE) and percentage loading (μg of drug per mg of particles) for bc2, and PFK15 was determined using BCA assay, and absorbance spectrophotometer (plate reader), respectively (Table 1). Moreover, the release of PFK15 were studied using a plate reader, and it was determined that the polymeric particles released the drug in a sustained manner over a period of 30 days.

BMDCs = test: CD86 / MHCII expression in BMDCs by flow cytometry; type: cell-based
Description: Next, it was assessed if the changes in BMDC glycolytic rates can affect surface co-stimulatory CD86 expression in BMDCs, using flow cytometry. In this study, pro-inflammatory DCs were defined as the frequency of […].
Since DCs indeed phagocytose paKG-based MPs in vivo, it was hypothesized that the observed reduction in paw swelling in the CIA mice treated with paKG(PFK15+bc2) MPs, may be due to the paKG(PFK15+bc2) MPs modulating DC function (FIG. 8A). Therefore, first effect of paKG(PFK15+bc2) MPs on in vitro cultured BMDCs in the form of altered CD86, MHCII, IL-10, IL-12p70 and TNFα expression in CD11c^+ cells was tested.

[2] = test system: glycolysis (ECAR) in BMDCs; test: Extracellular flux assay (ECAR); type: cell-based
Description: Reduction in CD86 expression by inhibiting glycolysis in DCs can affect pro-inflammatory DC activation in the presence of lipopolysaccharide (LPS), which is used to mimic inflammation in vitro (FIG. 5A). Therefore, it was tested if PFK15 by itself can block glycolysis in bone marrow-derived DCs (BMDCs) in the presence or absence of LPS. To assess this, the extracellular acidification rate (ECAR) of BMDCs was determined by extracellular flux assays. BMDCs treated with LPS only and no treatment were used as controls.
To test this, extracellular flux assays were used, and pre-activated DCs with LPS and no treatment were used as controls.

[3] = Release of PFK15 from polymeric particles (plate reader); type: physicochemical; details: from paKG polymeric particles
Description: as §1

[4] = with and without LPS, vs LPS and no treatment

O=C(C=Cc1ccc2ccccc2n1)c1ccncc1 [PFK15, 1-(4-pyridinyl)-3-(2-quinolinyl)-2-propen-1-one]
% EE [1]: 68% | % loading [1]: 1.7 µg/mg | percentage encapsulation efficiency of PFK15 within paKG MPs ([1]; paKG(PFK15) MPs): 68±17% | percentage loading efficiency of PFK15 ([1]; per mg of paKG MPs): 2 ± 1 µg/mg | frequency of pro-inflammatory BMDC populations (BMDCs; in the absence of LPS, vs no treatment): significantly decreased | decrease of frequency of CD86+MHCII+ of CD11c+ BMDCs (BMDCs; in the presence of LPS, vs LPS): approximately 8 fold | CD86 expression in CD11c+ cells (BMDCs; [4]): reduced CD86 expression | anti-inflammatory BMDC populations (BMDCs; [4]): did not significantly decrease | lowering of glycolysis (ECAR) ([2]; in the presence of LPS, vs LPS alone): 60% | ECAR in BMDCs ([2]; without LPS, vs no treatment): did not significantly reduce ECAR | period of sustained release of PFK15 [3]: 30 days

bc2: bovine collagen type II (bc2) antigen
% EE [1]: 60% | % loading [1]: 3 µg/mg | percentage encapsulation efficiency of bc2 ([1]; paKG(PFK15+bc2) MPs): 60 % (wt/wt) | percentage loading efficiency of bc2 ([1]; per mg of MPs, paKG(PFK15+bc2) MPs): 3 µg/mg
